Earlier results, collected in PMC9332635 (Journal of Food and Drug Analysis, 2017).

Tests used:
[1] = system: HBsAg secretion in HBV-transfected cell-lines
[2] = method validation study of isosteviol

IC50 for inhibiting HBsAg secretion [1] [µg/mL] | Long-term stability [2] [days] | Structure (SMILES)
49.13 |  | Nc1ccn([C@@H]2CS[C@H](CO)O2)c(=O)n1 [lamivudine]
 | 61 | C[C@@]12CC[C@@H]3[C@@](CC[C@H]4[C@@]3(C)CCC[C@@]4(C)C(=O)O)(CC1=O)C2 [isosteviol]
